# Measurements: patent publication US20110173718A1, “HERBICIDE TOLERANT PLANTS” (SYNGENTA CROP PROTECTION, INC., priority 2008, published 2011)
# Key:
# Arabidopsis HST = target: T1, Arabidopsis HST (Arabidopsis thaliana, UniProt Q1ACB3); assay: HST total extraction (non TLC) assay, recombinant Arabidopsis HST from insect cells; format: biochemical
# T1 construct: GST (factor Xa cleavage site) (N); made in house; host or cells: Sf9 insect cells (baculovirus, pAcG3X), membrane fraction
# T1 sequence (Q1ACB3 70-386): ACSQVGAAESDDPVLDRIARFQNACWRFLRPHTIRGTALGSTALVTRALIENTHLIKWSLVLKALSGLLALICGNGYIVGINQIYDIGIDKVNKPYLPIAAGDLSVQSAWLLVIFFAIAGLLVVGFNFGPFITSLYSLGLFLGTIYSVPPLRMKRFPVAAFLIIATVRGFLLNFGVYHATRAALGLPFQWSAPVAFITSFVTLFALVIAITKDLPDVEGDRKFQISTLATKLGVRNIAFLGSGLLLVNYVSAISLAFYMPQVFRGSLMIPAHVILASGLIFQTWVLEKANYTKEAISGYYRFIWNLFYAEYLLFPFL
# weeds [1] = assay: Glasshouse weed control, HST inhibitors alone and with A22, pre-emergence; format: in vivo; settings: 14 DAT; for pest or weed control at 15.625 g/ha / pest or weed control at 62.5 g/ha / pest or weed control at 250 g/ha: 336 h
# Procedure, shortened: (§1)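 Weeds grown in glasshouse trays (24-27 C day, 18-21 C night, ~15 h photoperiod) and track-sprayed in 0.2% X77 at […], pre-emergence or post-emergence at about 7-12 d. HPPD inhibitor A22 applied at 2 g/ha alone or mixed with HST herbicides. Damage scored 0–100% at 14 DAT; synergy calculated by Colby formula.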
# weeds [2] = assay: Glasshouse weed control, HST inhibitors alone and with A22, post-emergence; format: in vivo; settings: 14 DAT, single replicate; for pest or weed control at 15.625 g/ha / pest or weed control at 62.5 g/ha / pest or weed control at 250 g/ha: 336 h, read-out: % control score, Obs
# Procedure, shortened: as §1
structure (smiles),measurement,setting,value
C#Cn1c(=O)c(-c2c(F)ccc(F)c2Cl)c(O)c2nccnc21 [Compound 2.18],Estimated IC50 (ppm),Arabidopsis HST,6 ppm
same,"BRAPL Obs, % control score","weeds [1]; BRAPL, HST inhibitor rate 15.625 g/ha",0%
same,"BRAPL Obs, % control score","weeds [1]; BRAPL, HST inhibitor rate 62.5 g/ha",10%
same,"BRAPL Obs, % control score","weeds [1]; BRAPL, HST inhibitor rate 250 g/ha",40%
same,"DIGSA Obs, % control score","weeds [1]; DIGSA, HST inhibitor rate 15.625 g/ha",0%
same,"DIGSA Obs, % control score","weeds [1]; DIGSA, HST inhibitor rate 62.5 g/ha",0%
same,"DIGSA Obs, % control score","weeds [1]; DIGSA, HST inhibitor rate 250 g/ha",0%
same,"ECHCG Obs, % control score","weeds [1]; ECHCG, HST inhibitor rate 15.625 g/ha",0%
same,"ECHCG Obs, % control score","weeds [1]; ECHCG, HST inhibitor rate 62.5 g/ha",20%
same,"ECHCG Obs, % control score","weeds [1]; ECHCG, HST inhibitor rate 250 g/ha",20%
same,"PANMI Obs, % control score","weeds [1]; PANMI, HST inhibitor rate 15.625 g/ha",0%
same,"PANMI Obs, % control score","weeds [1]; PANMI, HST inhibitor rate 62.5 g/ha",0%
same,"PANMI Obs, % control score","weeds [1]; PANMI, HST inhibitor rate 250 g/ha",50%
same,"SETFA Obs, % control score","weeds [1]; SETFA, HST inhibitor rate 15.625 g/ha",0%
same,"SETFA Obs, % control score","weeds [1]; SETFA, HST inhibitor rate 62.5 g/ha",20%
same,"SETFA Obs, % control score","weeds [1]; SETFA, HST inhibitor rate 250 g/ha",25%
same,"SIDSP Obs, % control score","weeds [1]; SIDSP, HST inhibitor rate 15.625 g/ha",0%
same,"SIDSP Obs, % control score","weeds [1]; SIDSP, HST inhibitor rate 62.5 g/ha",30%
same,"SIDSP Obs, % control score","weeds [1]; SIDSP, HST inhibitor rate 250 g/ha",30%
same,"% control score, Obs","weeds [2]; BRAPL, 15.625 g/ha alone",5%
same,"% control score, Obs","weeds [2]; BRAPL, 62.5 g/ha alone",60%
same,"% control score, Obs","weeds [2]; BRAPL, 250 g/ha alone",80%
same,"% control score, Obs","weeds [2]; DIGSA, 15.625 g/ha alone",1%
same,"% control score, Obs","weeds [2]; DIGSA, 62.5 g/ha alone",30%
same,"% control score, Obs","weeds [2]; DIGSA, 250 g/ha alone",50%
same,"% control score, Obs","weeds [2]; ECHCG, 15.625 g/ha alone",2%
same,"% control score, Obs","weeds [2]; ECHCG, 62.5 g/ha alone",40%
same,"% control score, Obs","weeds [2]; ECHCG, 250 g/ha alone",70%
same,"% control score, Obs","weeds [2]; PANMI, 15.625 g/ha alone",10%
same,"% control score, Obs","weeds [2]; PANMI, 62.5 g/ha alone",65%
same,"% control score, Obs","weeds [2]; PANMI, 250 g/ha alone",70%
same,"% control score, Obs","weeds [2]; SETFA, 15.625 g/ha alone",10%
same,"% control score, Obs","weeds [2]; SETFA, 62.5 g/ha alone",60%
same,"% control score, Obs","weeds [2]; SETFA, 250 g/ha alone",85%
same,"% control score, Obs","weeds [2]; SIDSP, 15.625 g/ha alone",15%
same,"% control score, Obs","weeds [2]; SIDSP, 62.5 g/ha alone",60%
same,"% control score, Obs","weeds [2]; SIDSP, 250 g/ha alone",70%
O=c1c(-c2c(F)ccc(F)c2Cl)c(O)c2nccnc2n1CC(F)(F)F [Compound 2.17],Estimated IC50 (ppm),Arabidopsis HST,38 ppm
same,pest or weed control at 15.625 g/ha,"weeds [1]; BRAPL, HST inhibitor rate 15.625 g/ha, read-out: BRAPL Obs, % control score",0%
same,pest or weed control at 62.5 g/ha,"weeds [1]; BRAPL, HST inhibitor rate 62.5 g/ha, read-out: BRAPL Obs, % control score",0%
same,pest or weed control at 250 g/ha,"weeds [1]; BRAPL, HST inhibitor rate 250 g/ha, read-out: BRAPL Obs, % control score",2%
same,pest or weed control at 15.625 g/ha,"weeds [1]; PANMI, HST inhibitor rate 15.625 g/ha, read-out: PANMI Obs, % control score",0%
same,pest or weed control at 62.5 g/ha,"weeds [1]; PANMI, HST inhibitor rate 62.5 g/ha, read-out: PANMI Obs, % control score",0%
same,pest or weed control at 250 g/ha,"weeds [1]; PANMI, HST inhibitor rate 250 g/ha, read-out: PANMI Obs, % control score",0%
same,pest or weed control at 15.625 g/ha,"weeds [1]; SIDSP, HST inhibitor rate 15.625 g/ha, read-out: SIDSP Obs, % control score",0%
same,pest or weed control at 62.5 g/ha,"weeds [1]; SIDSP, HST inhibitor rate 62.5 g/ha, read-out: SIDSP Obs, % control score",0%
same,pest or weed control at 250 g/ha,"weeds [1]; SIDSP, HST inhibitor rate 250 g/ha, read-out: SIDSP Obs, % control score",0%
same,pest or weed control at 15.625 g/ha,"weeds [1]; Digitaria sanguinalis, DIGSA, HST inhibitor rate 15.625 g/ha, read-out: DIGSA Obs, % control score",0%
same,pest or weed control at 62.5 g/ha,"weeds [1]; Digitaria sanguinalis, DIGSA, HST inhibitor rate 62.5 g/ha, read-out: DIGSA Obs, % control score",0%
same,pest or weed control at 250 g/ha,"weeds [1]; Digitaria sanguinalis, DIGSA, HST inhibitor rate 250 g/ha, read-out: DIGSA Obs, % control score",0%
same,pest or weed control at 15.625 g/ha,"weeds [1]; Echinochloa crus-galli, ECHCG, HST inhibitor rate 15.625 g/ha, read-out: ECHCG Obs, % control score",0%
same,pest or weed control at 62.5 g/ha,"weeds [1]; Echinochloa crus-galli, ECHCG, HST inhibitor rate 62.5 g/ha, read-out: ECHCG Obs, % control score",0%
same,pest or weed control at 250 g/ha,"weeds [1]; Echinochloa crus-galli, ECHCG, HST inhibitor rate 250 g/ha, read-out: ECHCG Obs, % control score",10%
same,pest or weed control at 15.625 g/ha,"weeds [1]; Setaria faberi, SETFA, HST inhibitor rate 15.625 g/ha, read-out: SETFA Obs, % control score",0%
same,pest or weed control at 62.5 g/ha,"weeds [1]; Setaria faberi, SETFA, HST inhibitor rate 62.5 g/ha, read-out: SETFA Obs, % control score",0%
same,pest or weed control at 250 g/ha,"weeds [1]; Setaria faberi, SETFA, HST inhibitor rate 250 g/ha, read-out: SETFA Obs, % control score",10%
same,pest or weed control at 15.625 g/ha,"weeds [2]; BRAPL, 15.625 g/ha alone",1%
same,pest or weed control at 62.5 g/ha,"weeds [2]; BRAPL, 62.5 g/ha alone",15%
same,pest or weed control at 250 g/ha,"weeds [2]; BRAPL, 250 g/ha alone",50%
same,pest or weed control at 15.625 g/ha,"weeds [2]; PANMI, 15.625 g/ha alone",0%
same,pest or weed control at 62.5 g/ha,"weeds [2]; PANMI, 62.5 g/ha alone",10%
same,pest or weed control at 250 g/ha,"weeds [2]; PANMI, 250 g/ha alone",55%
same,pest or weed control at 15.625 g/ha,"weeds [2]; SIDSP, 15.625 g/ha alone",5%
same,pest or weed control at 62.5 g/ha,"weeds [2]; SIDSP, 62.5 g/ha alone",15%
same,pest or weed control at 250 g/ha,"weeds [2]; SIDSP, 250 g/ha alone",50%
same,pest or weed control at 15.625 g/ha,"weeds [2]; Digitaria sanguinalis, DIGSA, 15.625 g/ha alone",0%
same,pest or weed control at 62.5 g/ha,"weeds [2]; Digitaria sanguinalis, DIGSA, 62.5 g/ha alone",5%
same,pest or weed control at 250 g/ha,"weeds [2]; Digitaria sanguinalis, DIGSA, 250 g/ha alone",50%
same,pest or weed control at 15.625 g/ha,"weeds [2]; Echinochloa crus-galli, ECHCG, 15.625 g/ha alone",0%
same,pest or weed control at 62.5 g/ha,"weeds [2]; Echinochloa crus-galli, ECHCG, 62.5 g/ha alone",5%
same,pest or weed control at 250 g/ha,"weeds [2]; Echinochloa crus-galli, ECHCG, 250 g/ha alone",40%
same,pest or weed control at 15.625 g/ha,"weeds [2]; Setaria faberi, SETFA, 15.625 g/ha alone",0%
same,pest or weed control at 62.5 g/ha,"weeds [2]; Setaria faberi, SETFA, 62.5 g/ha alone",10%
same,pest or weed control at 250 g/ha,"weeds [2]; Setaria faberi, SETFA, 250 g/ha alone",40%
